According to US9045425B2, “Solid forms of N-[2,4-bis(1,1-dimethylethyl)-5-hydroxyphenyl]-1,4-dihydro-4-oxoquinoline-3-carboxamide” (Vertex Pharmaceuticals Incorporated, priority 2012, dated 2015):

How the values were obtained:
[1] = Desolvation: standing open under ambient conditions or in vacuum oven, form checked by XRPD; type: physicochemical
Method: A polymorph screen was conducted in the methylethyl ketone (MEK)/water solvent systems, as well as in the acetonitrile (ACN), ACN/water and isopropyl acetate solvent systems. Polymorph screening techniques included crash cooling, solvent evaporation, antisolvent addition, and slurry experiments. Slurry experiments were performed on an IKA RCT hot plate with magnetic stirring set to 710 rpm. The temperature was controlled with an IKA ETS-D5 thermocouple. Solvent volumes were measured and transferred with Gibson Pipetteman volumetric pipettes. New forms that were identified as solvates were subjected to desolvation under two potential conditions: (1) drying in a vacuum oven at 40° C. and (2) sitting undisturbed under ambient conditions in a fume hood. Physical characterization of all forms proceeded by X-ray powder diffraction (XRPD) and thermogravimetric analysis (TGA).
New forms of Compound 1 obtained in the polymorph screen suspected of being solvates were subjected to further form investigation through attempted desolvation. Forms D, E, F, G, H, I, J, K, L and Hydrate A were left to stand open to the atmosphere under ambient conditions and or were placed in a vacuum oven.

[2] = Polymorph screen solvent systems: solubility noted when preparing saturated solutions; type: physicochemical; conditions: solvent system: water
Method: A saturated solution of Compound 1, Form XX was made by preparing 1 mL slurries using acetonitrile (ACN), ACN-water (75:25), methylethyl ketone (MEK), or MEK-water (99:1, 90:10, or 80:20) in vials. After 24 hours in capped HPLC vials, the slurries were then filtered to remove residual solids. Approximately 2 additional milligrams of Compound 1 was added to each vial containing a saturated solution. Next, the vials were heated to 70° C. with stirring until all of the material was completely dissolved. Immediately after, the samples were submerged into an ice bath. The product, which precipitated as a white powder within 1 minute, was isolated by filtration and analyzed by XRPD and TGA.
A saturated solution was made by slurrying Compound 1, Form XX in 5 mL of solvent (ACN, isopropyl acetate (IPAc), or MEK) or 1 mL of solvent for the MEK/Water solvent system. After 24 hours, the residual solids were removed by filtration. The saturated solutions were then subjected to rapid solvent evaporation by blowing nitrogen (N2) gas over the samples with a Pierce Model 18780 Reacti-Vap evaporating unit for four hours. The product precipitated as a white powder and the form was analyzed by XRPD and TGA.
A saturated solution of Compound 1, Form XX was made by slurrying either in 5 mL of solvent in the ACN, IPAc, and MEK solvent systems, 2 mL total solvent for IPAc/water, or 1 mL total solvent for the MEK/water solvent systems. After 24 hours, the residual solids were removed by filtration. 20 mL of antisolvent was then quickly added to the saturated solutions to induce precipitation. Hexane was used as the antisolvent in the MEK and IPAc solvent systems, and MTBE was used as the antisolvent in the ACN solvent systems, as a consequence of the immiscibility between ACN and hexane. The product precipitated as a white powder and the form was analyzed by XRPD and TGA.

CC(C)(C)c1cc(C(C)(C)C)c(NC(=O)c2c[nH]c3ccccc3c2=O)cc1O [Form G, N-[2,4-bis(1,1-dimethylethyl)-5-hydroxyphenyl]-1,4-dihydro-4-oxoquinoline-3-carboxamide]
Solid form after desolvation attempt ([1]; vacuum oven for one month): became x-ray amorphous

CC(C)(C)c1cc(C(C)(C)C)c(NC(=O)c2c[nH]c3ccccc3c2=O)cc1O [Form L, N-[2,4-bis(1,1-dimethylethyl)-5-hydroxyphenyl]-1,4-dihydro-4-oxoquinoline-3-carboxamide]
Solid form after desolvation attempt ([1]; ambient conditions for two weeks): same Form L pattern | Solid form after desolvation attempt ([1]; vacuum oven for 24 hours): converted to x-ray amorphous

CC(C)(C)c1cc(C(C)(C)C)c(NC(=O)c2c[nH]c3ccccc3c2=O)cc1O [Form K, N-[2,4-bis(1,1-dimethylethyl)-5-hydroxyphenyl]-1,4-dihydro-4-oxoquinoline-3-carboxamide]
Solid form after desolvation attempt ([1]; ambient conditions and vacuum oven for 2 months): converted to a new crystalline form of Compound 1 designated Form S

CC(C)(C)c1cc(C(C)(C)C)c(NC(=O)c2c[nH]c3ccccc3c2=O)cc1O [Form D, N-[2,4-bis(1,1-dimethylethyl)-5-hydroxyphenyl]-1,4-dihydro-4-oxoquinoline-3-carboxamide]
Solid form after desolvation attempt ([1]; ambient conditions and vacuum oven for approximately 1 month): converted to a new crystalline form of Compound 1 designated Form R

CC(C)(C)c1cc(C(C)(C)C)c(NC(=O)c2c[nH]c3ccccc3c2=O)cc1O [Form E, N-[2,4-bis(1,1-dimethylethyl)-5-hydroxyphenyl]-1,4-dihydro-4-oxoquinoline-3-carboxamide]
XRPD pattern after desolvation attempt ([1]; after standing under ambient conditions and after sitting in the vacuum oven): same XRPD patterns

CC(C)(C)c1cc(C(C)(C)C)c(NC(=O)c2c[nH]c3ccccc3c2=O)cc1O [Compound 1, Form XX, N-[2,4-bis(1,1-dimethylethyl)-5-hydroxyphenyl]-1,4-dihydro-4-oxoquinoline-3-carboxamide]
Solubility in solvent system (antisolvent addition results) [2]: not soluble | Solubility in solvent system (crash cooling results) [2]: not soluble | Solubility in solvent system (solvent evaporation results) [2]: not soluble

CC(C)(C)c1cc(C(C)(C)C)c(NC(=O)c2c[nH]c3ccccc3c2=O)cc1O [Form H, N-[2,4-bis(1,1-dimethylethyl)-5-hydroxyphenyl]-1,4-dihydro-4-oxoquinoline-3-carboxamide]
Solid form after desolvation attempt ([1]; ambient conditions for one month): same Form H pattern | Solid form after desolvation attempt ([1]; vacuum oven for one month): converted to a semi-crystalline form
